Assay results as given in ChEMBL document CHEMBL3727348, “3-(aryl or heteroaryl) methyleneindolin-2-one derivatives as inhibitors of cancer stem cell pathway kinases for the treatment of cancer” (2014).

These compounds were tested on ACHN (assay: Cytotoxic activity against human ACHN bulk cells incubated for 72 hrs by Cell-titer-Glo luminescence assay). Conditions: not given.
Type: functional, cell-based

Q: Which IC50 does the source give for `CCN(CC)CCNC(=O)c1c(C)[nH]c(/C=C2\C(=O)Nc3ccc(-c4cnc(-c5ccccc5)o4)cc32)c1C` here?
A: 12.2 µM

Q: With `Cc1cc(C)c(/C=C2\C(=O)Nc3ccc(-c4ccc5ccccc5n4)cc32)[nH]1` as the compound, how does the IC50 read?
A: 7.44 µM

Q: `Cc1[nH]c(/C=C2\C(=O)Nc3ccc(-c4csc(-c5ccncc5)n4)cc32)c(C)c1CCC(=O)O` was tested. Which IC50 did it give?
A: 14.6 µM

Q: For `CCN(CC)CCNC(=O)c1c(C)[nH]c(/C=C2\C(=O)Nc3ccc(-n4cc(-c5ccccc5)nn4)cc32)c1C`, which IC50 is on record?
A: 7.16 µM

Q: With `Cc1cc(C)c(/C=C2\C(=O)Nc3ccc(-c4cnc5ccccc5n4)cc32)[nH]1` as the compound, how does the IC50 read?
A: 10.6 µM

Q: For `CCN(CC)CCNC(=O)c1c(C)[nH]c(/C=C2\C(=O)Nc3ccc(-c4cnc(-c5ccccc5)[nH]4)cc32)c1C`, which IC50 is on record?
A: 20.6 µM

Q: How did the IC50 turn out when `Cc1cc(C)c(/C=C2\C(=O)Nc3ccc(-c4csc(-c5ccccc5)n4)cc32)[nH]1` was run?
A: 5.31 µM

Q: How did the IC50 turn out when `CCN(CC)CCNC(=O)c1c(C)[nH]c(/C=C2\C(=O)Nc3ccc(-c4cn(-c5ccccc5)nn4)cc32)c1C` was run?
A: 4.73 µM

Q: How did the IC50 turn out when `Cc1cc(C)c(/C=C2\C(=O)Nc3ccc(-c4cncnc4)cc32)[nH]1` was run?
A: 12.8 µM

Q: `O=C1Nc2ccc(-c3csc(-c4ccccc4)n3)cc2/C1=C/c1[nH]c(C(=O)O)c2c1CCCC2` was tested. Which IC50 did it give?
A: 24.9 µM

Q: How did the IC50 turn out when `Cc1cc(C)c(/C=C2\C(=O)Nc3ccc(-c4nc5ccccc5s4)cc32)[nH]1` was run?
A: 14.7 µM

Q: How did the IC50 turn out when `CCN(CC)CCNC(=O)c1ccc(/C=C2\C(=O)Nc3ccc(-c4csc(-c5ccccc5)n4)cc32)[nH]c1=O` was run?
A: 3.31 µM

Q: Which IC50 does the source give for `Cc1cc(C)c(/C=C2\C(=O)Nc3ccc(-c4ccc(C(=O)c5ccccc5)cc4)cc32)[nH]1` here?
A: 21.8 µM

Q: `CCN(CC)CCNC(=O)c1[nH]c(/C=C2\C(=O)Nc3ccc(-c4csc(-c5ccccc5)n4)cc32)c2c1CCCC2` was tested. Which IC50 did it give?
A: 9.91 µM

Q: With `COc1ccc(-c2ccc3c(c2)/C(=C/c2[nH]c(C)cc2C)C(=O)N3)c(C)c1` as the compound, how does the IC50 read?
A: 24.8 µM

Q: Which IC50 does the source give for `COC(=O)c1c(C)[nH]c(/C=C2\C(=O)Nc3ccc(-c4csc(-c5ccccc5)n4)cc32)c1C` here?
A: 1.16 µM

Q: With `Cc1cc(C)c(/C=C2\C(=O)Nc3cc(-c4cnc5ccccn45)ccc32)[nH]1` as the compound, how does the IC50 read?
A: 20.6 µM

Q: `CCN(CC)CCNC(=O)c1c(C)[nH]c(/C=C2\C(=O)Nc3ccc(C4CCN(C5CCN(C(C)=O)CC5)CC4)cc32)c1C` was tested. Which IC50 did it give?
A: 4.8 µM

The compounds below were run on FaDu (assay: Cytotoxic activity against human FADU bulk cells incubated for 72 hrs by Cell-titer-Glo luminescence assay). Conditions: not given.
Type: functional, cell-based

Q: How did the IC50 turn out when `Cc1[nH]c(/C=C2\C(=O)Nc3ccc(-c4cnc(-c5ccccc5)[nH]4)cc32)c(C)c1C(=O)N1CCN(C)CC1` was run?
A: 5.54 µM

Q: For `Cc1[nH]c(/C=C2\C(=O)Nc3ccc(-c4ccnn4-c4ccccc4)cc32)c(C)c1C(=O)N1CCN(C)CC1`, which IC50 is on record?
A: 4.55 µM

Q: `Cc1cc(C)c(/C=C2\C(=O)Nc3ccc(-c4nccc5ccccc45)cc32)[nH]1` was tested. Which IC50 did it give?
A: 23.5 µM

Q: How did the IC50 turn out when `O=C1Nc2ccc(-c3csc(-c4ccccc4)n3)cc2/C1=C/c1ccc(N2CCOCC2)cc1` was run?
A: 35.5 µM

Q: Which IC50 does the source give for `CCN(CC)CCNC(=O)c1c(C)[nH]c(/C=C2\C(=O)Nc3ccc(-c4csc(-c5cccc(Br)c5)n4)cc32)c1C` here?
A: 24.8 µM

Q: How did the IC50 turn out when `CCN(CC)CCNC(=O)c1c(C)[nH]c(/C=C2\C(=O)Nc3ccc(-c4cnc(-c5ccccc5)o4)cc32)c1C` was run?
A: 9.73 µM

Q: `CCN(CC)CCNC(=O)c1c(C)[nH]c(/C=C2\C(=O)Nc3ccc(-c4csc(-c5ccccn5)n4)cc32)c1C` was tested. Which IC50 did it give?
A: 46.9 µM

Q: With `CCN(CC)CCNC(=O)c1c(C)[nH]c(/C=C2\C(=O)Nc3ccc(-c4nc(-c5ccccc5)n[nH]4)cc32)c1C` as the compound, how does the IC50 read?
A: 6.16 µM

Q: With `O=C1Nc2ccc(-c3csc(-c4ccccc4)n3)cc2/C1=C/c1ccc(N2CCNCC2)cc1` as the compound, how does the IC50 read?
A: 2.59 µM

Q: For `Cc1cc(C)c(/C=C2\C(=O)Nc3cc(-c4ccncc4)ccc32)[nH]1`, which IC50 is on record?
A: 18.4 µM

Q: Which IC50 does the source give for `CCN(CC)CCNC(=O)c1c(C)[nH]c(/C=C2\C(=O)Nc3ccc(-n4cc(-c5ccccc5)nn4)cc32)c1C` here?
A: 6.58 µM

Q: Which IC50 does the source give for `Cc1cc(C)c(/C=C2\C(=O)Nc3ccc(-c4cnc5ccccc5n4)cc32)[nH]1` here?
A: 25.8 µM

Q: Which IC50 does the source give for `CCN(CC)CCNC(=O)c1c(C)[nH]c(/C=C2\C(=O)Nc3ccc(-c4cnc(-c5ccccc5)[nH]4)cc32)c1C` here?
A: 5.34 µM

Q: For `Cc1[nH]c(/C=C2\C(=O)Nc3ccc(-c4cnc(-c5ccccc5)o4)cc32)c(C)c1C(=O)N1CCN(C)CC1`, which IC50 is on record?
A: 12.1 µM

Q: `Cc1cc(C)c(/C=C2\C(=O)Nc3ccc(-c4csc(-c5ccccc5)n4)cc32)[nH]1` was tested. Which IC50 did it give?
A: 7.87 µM

Q: How did the IC50 turn out when `O=C1Nc2ccc(-c3csc(-c4ccccc4)n3)cc2/C1=C/c1cc2ccccc2[nH]1` was run?
A: 49.3 µM

Q: Which IC50 does the source give for `Cc1ccc(-c2nc(-c3ccc4c(c3)/C(=C/c3[nH]c(C)c(C(=O)N5CCOCC5)c3C)C(=O)N4)cs2)cc1` here?
A: 3.05 µM

Q: How did the IC50 turn out when `CCN(CC)CCNC(=O)c1c(C)[nH]c(/C=C2\C(=O)Nc3ccc(-c4cs/c(=N\c5ccccc5)n4C)cc32)c1C` was run?
A: 5.35 µM

Q: Which IC50 does the source give for `O=C1Nc2ccc(-c3csc(-c4ccncc4)n3)cc2/C1=C/c1ccc(N2CCOCC2)cc1` here?
A: 17.5 µM

Q: `CCN(CC)CCNC(=O)c1c(C)[nH]c(/C=C2\C(=O)Nc3ccc(-c4cn(-c5ccccc5)nn4)cc32)c1C` was tested. Which IC50 did it give?
A: 6.74 µM

Q: For `Cc1cc(C)c(/C=C2\C(=O)Nc3cc(-c4ccc5ccccc5n4)ccc32)[nH]1`, which IC50 is on record?
A: 14 µM

Q: For `CCN(CC)CCNC(=O)c1c(C)[nH]c(/C=C2\C(=O)Nc3cc(-c4ccc5cc[nH]c(=O)c5c4)ccc32)c1C`, which IC50 is on record?
A: 23.9 µM

Q: Which IC50 does the source give for `Cc1cc(C)c(/C=C2\C(=O)Nc3ccc(-c4nc5ccccc5s4)cc32)[nH]1` here?
A: 26.8 µM

Q: With `CCN(CC)CCNC(=O)c1ccc(/C=C2\C(=O)Nc3ccc(-c4csc(-c5ccccc5)n4)cc32)[nH]c1=O` as the compound, how does the IC50 read?
A: 3.1 µM

Q: Which IC50 does the source give for `Cc1cc(C)c(/C=C2\C(=O)Nc3ccc(-c4ccc(C(=O)c5ccccc5)cc4)cc32)[nH]1` here?
A: 22.4 µM

Q: With `COc1ccc(-c2ccc3c(c2)/C(=C/c2[nH]c(C)cc2C)C(=O)N3)c(C)c1` as the compound, how does the IC50 read?
A: 19.8 µM

Q: How did the IC50 turn out when `COC(=O)c1c(C)[nH]c(/C=C2\C(=O)Nc3ccc(-c4csc(-c5ccccc5)n4)cc32)c1C` was run?
A: 21.8 µM

Q: How did the IC50 turn out when `Cc1cc(C)c(/C=C2\C(=O)Nc3cc(-c4cnc5ccccn45)ccc32)[nH]1` was run?
A: 19.4 µM

Q: For `CCN(CC)CCNC(=O)c1c(C)[nH]c(/C=C2\C(=O)Nc3ccc(C4CCN(C5CCN(C(C)=O)CC5)CC4)cc32)c1C`, which IC50 is on record?
A: 3.32 µM

What follows are compounds tested on FaDu (assay: Cytotoxic activity against human FADU cancer stem cells incubated for 72 hrs by Cell-titer-Glo luminescence assay). Conditions: not given.
Type: functional, cell-based

Q: With `Cc1[nH]c(/C=C2\C(=O)Nc3ccc(-c4cnc(-c5ccccc5)[nH]4)cc32)c(C)c1C(=O)N1CCN(C)CC1` as the compound, how does the IC50 read?
A: 13.2 µM

Q: How did the IC50 turn out when `Cc1[nH]c(/C=C2\C(=O)Nc3ccc(-c4ccnn4-c4ccccc4)cc32)c(C)c1C(=O)N1CCN(C)CC1` was run?
A: 11.5 µM

Q: Which IC50 does the source give for `CCN(CC)CCNC(=O)c1c(C)[nH]c(/C=C2\C(=O)Nc3ccc(-c4csc(-c5cccc(Br)c5)n4)cc32)c1C` here?
A: 7.82 µM

Q: Which IC50 does the source give for `CCN(CC)CCNC(=O)c1c(C)[nH]c(/C=C2\C(=O)Nc3ccc(-c4cnc(-c5ccccc5)o4)cc32)c1C` here?
A: 41.5 µM

Q: `CCN(CC)CCNC(=O)c1c(C)[nH]c(/C=C2\C(=O)Nc3ccc(-c4nc(-c5ccccc5)n[nH]4)cc32)c1C` was tested. Which IC50 did it give?
A: 2.8 µM

Q: For `CCN(CC)CCNC(=O)c1c(C)[nH]c(/C=C2\C(=O)Nc3ccc(-n4cc(-c5ccccc5)nn4)cc32)c1C`, which IC50 is on record?
A: 3 µM

Q: Which IC50 does the source give for `Cc1cc(C)c(/C=C2\C(=O)Nc3ccc(-c4cnc5ccccc5n4)cc32)[nH]1` here?
A: 0.09 µM

Q: With `Cc1[nH]c(/C=C2\C(=O)Nc3ccc(-c4cnc(-c5ccccc5)o4)cc32)c(C)c1C(=O)N1CCN(C)CC1` as the compound, how does the IC50 read?
A: 9.35 µM

Q: With `Cc1cc(C)c(/C=C2\C(=O)Nc3ccc(-c4csc(-c5ccccc5)n4)cc32)[nH]1` as the compound, how does the IC50 read?
A: 6.49 µM

Q: How did the IC50 turn out when `CCN(CC)CCNC(=O)c1c(C)[nH]c(/C=C2\C(=O)Nc3ccc(-c4cs/c(=N\c5ccccc5)n4C)cc32)c1C` was run?
A: 2.17 µM

Q: How did the IC50 turn out when `CCN(CC)CCNC(=O)c1c(C)[nH]c(/C=C2\C(=O)Nc3ccc(-c4cn(-c5ccccc5)nn4)cc32)c1C` was run?
A: 2.9 µM

Q: `O=C1Nc2ccc(-c3csc(-c4ccccc4)n3)cc2/C1=C/c1[nH]c(C(=O)O)c2c1CCCC2` was tested. Which IC50 did it give?
A: 4.49 µM

Q: Which IC50 does the source give for `CCN(CC)CCNC(=O)c1ccc(/C=C2\C(=O)Nc3ccc(-c4csc(-c5ccccc5)n4)cc32)[nH]c1=O` here?
A: 6.15 µM

Q: How did the IC50 turn out when `CCN(CC)CCNC(=O)c1c(C)[nH]c(/C=C2\C(=O)Nc3ccc(C4CCN(C5CCN(C(C)=O)CC5)CC4)cc32)c1C` was run?
A: 1 µM

Each compound was assayed on A549 (assay: Cytotoxic activity against human A549 cancer stem cells incubated for 72 hrs by Cell-titer-Glo luminescence assay). Conditions: A549, 72 h.
Type: functional, cell-based

Q: With `Cc1cc(C)c(/C=C2\C(=O)Nc3cc(-c4ccncc4)ccc32)[nH]1` as the compound, how does the IC50 read?
A: 0.98 µM

Each compound was assayed on A549 (assay: Cytotoxic activity against human A549 bulk cells incubated for 72 hrs by Cell-titer-Glo luminescence assay). Conditions: A549, 72 h.
Type: functional, cell-based

Q: For `Cc1cc(C)c(/C=C2\C(=O)Nc3ccc(-c4nccc5ccccc45)cc32)[nH]1`, which IC50 is on record?
A: 18.4 µM

Q: With `O=C1Nc2ccc(-c3csc(-c4ccccc4)n3)cc2/C1=C/c1ccc(N2CCNCC2)cc1` as the compound, how does the IC50 read?
A: 5.79 µM

Q: `Cc1cc(C)c(/C=C2\C(=O)Nc3ccc(-c4cnc5ccccc5n4)cc32)[nH]1` was tested. Which IC50 did it give?
A: 7.89 µM

Q: With `CCN(CC)CCNC(=O)c1c(C)[nH]c(/C=C2\C(=O)Nc3ccc(-c4cn(-c5ccccc5)nn4)cc32)c1C` as the compound, how does the IC50 read?
A: 4.88 µM

Q: For `Cc1cc(C)c(/C=C2\C(=O)Nc3ccc(-c4cncnc4)cc32)[nH]1`, which IC50 is on record?
A: 20.8 µM

Q: For `Cc1cc(C)c(/C=C2\C(=O)Nc3ccc(-c4nc5ccccc5s4)cc32)[nH]1`, which IC50 is on record?
A: 16.1 µM

Q: With `CCN(CC)CCNC(=O)c1ccc(/C=C2\C(=O)Nc3ccc(-c4csc(-c5ccccc5)n4)cc32)[nH]c1=O` as the compound, how does the IC50 read?
A: 3.64 µM

Q: `COC(=O)c1c(C)[nH]c(/C=C2\C(=O)Nc3ccc(-c4csc(-c5ccccc5)n4)cc32)c1C` was tested. Which IC50 did it give?
A: 16.3 µM

Q: With `CCN(CC)CCNC(=O)c1c(C)[nH]c(/C=C2\C(=O)Nc3ccc(C4CCN(C5CCN(C(C)=O)CC5)CC4)cc32)c1C` as the compound, how does the IC50 read?
A: 29.6 µM
